Reference: patent US6989448B2, “Heteroaryl alkyl alpha substituted peptidylamine calcium channel blockers” (priority 1998, dated 2006)
Structures can show the parent of a compound that is named as a salt. Values belong to the molecule of their own block, whether it stands above or below them.

Tests used:
N-type Ca2+ channel = target: T1, N-type Ca2+ channel (Homo sapiens, UniProt Q00975); assay: Measurement of N-type Ca2+ channel blocking potencies in IMR-32 cells using the fluorescent Ca2+ indicator Indo-1; assay type: cell-based; conditions: for IC50: K+-stimulated Ca2+ flux, 5 μM nitrendipine to block L-type channels, some values marked (est.); for IMR-32 % of Blockade @ μM: 5 μM nitrendipine
T1 construct: host or cells: IMR-32 cells, differentiated with dibutyryl cAMP and bromodeoxyuridine
Experimental: Measurement of N-type Ca^2+ Channel Blocking Potencies of Compounds in IMR-32 Cells Using the Fluorescent Ca^2+ Indicator Indo-1
IMR-32 cells are a human tumoral cell line of neural origin. […] Calcium flux into these cells may be induced by stimulation with elevated potassium concentrations. The L-channel component of calcium flux may be blocked by adding 5 μM nitrendipine. The remaining component of calcium entry into the IMR-32 cells is due to calcium flux through N-type calcium channels. Intracellular calcium concentrations are measured using the fluorescent calcium indicator Indo-1. The effect of drug concentration on calcium uptake is studied.
The IMR-32 cell line was obtained from the American Type Culture Collection (Rockville, Md.). Cells were grown in Eagle's Minimum Essential Medium with Earle's salts supplemented with 10% fetal bovine serum, 2 mM L-Gln and antibiotic/antimycotic mixture (Gibco). At approximately 80% confluency, differentiation was induced by the addition of 1 mM dibutyryl cAMP and 2.5 μM bromodeoxyuridine to the medium. After 7 to 13 days of differentiation, cells were detached using 0.5 mM EDTA and loaded with 5 μM Indo-1 acetoxymethyl ester (Molecular Probes, Eugene, Oreg.) at 30° C. for 45 minutes Loaded cells were washed twice, resuspended (˜10^7 cells/mL) in assay buffer (10 mM HEPES/Tris pH 7.4 in Hank's Balanced Salt Solution without bicarbonate or phenol red containing 0.5% bovine serum albumin) and kept on ice until use. Fluorescence measurements were carried out in a Photon Technology International (PTI, South Brunswick, N.J.) Model RF-F3004 spectrofluorometer with dual emission monochromators using excitation at 350 nm and emission at 400 and 490 nm. The instrument was equipped with a thermostated cuvette holder with stirring capabilities, as well as with a computer-controlled pump which allowed for reagent addition during measurement. Instrument control and data collection was done by PTI's OSCAR software running on an IBM compatible computer. Different concentrations of the test compounds (60 μL in dimethyl sulfoxide) were added to 5.94 mL of assay buffer containing approximately 3×10^6 loaded cells, and 5 μM nitrendipine (in 30 μL EtOH) to block L-type Ca^2+ channels. Samples were incubated for 10 minutes at 30° C. and then aliquoted into three 10×10 mm disposable acrylic cuvettes. Emission signals at 400 and 490 nm were acquired from each cuvette at 30° C. for 50 seconds. At 20 seconds after the start of reading, cells were depolarized by the addition of 160 μL of stimulation solution (1 M KCl, 68 mM CaCl2) to the cuvette via the computer-controlled pump. Ratio of dual emission signals (400 nm/490 nm), which is proportional to intracellular Ca^2+ concentration, was plotted against time, and the difference between maximal response after stimulation and basal value (before stimulation) was determined. Values obtained in this way were plotted as a function of drug concentration. IC50 values of test compounds were calculated by fitting a 4-parameter logistic function to the data using the least squares method.

DBA/2 mice = assay: Audiogenic (sound-induced) seizure test in DBA/2 mice, protection from tonic seizures; assay type: in vivo; conditions: 30 mg/kg, intravenous, tested 15 or 45 minutes after injection
Experimental: In Vivo Biological Protocol
A compound of the present invention was dissolved in water using 10% (weight/volume) Emulphor (GAF Corp., Wayne, N.J.) surfactant. Substances were administered by intravenous injection into the retro-orbital venous sinus. All testing was performed 15 minutes or 45 minutes after drug injection. All the male mice, 3 to 4 weeks old, were obtained from Jackson Laboratories, Bar Harbour, Me. Immediately before anticonvulsant testing, mice were placed upon a wire mesh, 4 inches square suspended from a steel rod. The square was slowly inverted through 180 degree and mice observed for 30 seconds. Any mouse falling from the wire mesh was scored as ataxia.
Mice were placed into an enclosed acrylic plastic chamber (21 cm height, approximately 30 cm diameter) with a high-frequency speaker (4 cm diameter) in the center of the top lid. An audio signal generator (Protek Model B-810) was used to produce a continuous sinusoidal tone that was swept linearly in frequency between 8 kHz and 16 kHz once each 10 msec. The average sound pressure level (SPL) during stimulation was approximately 100 dB at the floor of the chamber. Mice were placed within the chamber and allowed to acclimatize for 1 minute. DBA/2 mice in the vehicle-treated group responded to the sound stimulus (applied until tonic extension occurred, or for a maximum of 60 sec) with a characteristic seizure sequence consisting of wild running followed by clonic seizures, and later by tonic extension, and finally by respiratory arrest and death in 80% or more of the mice. In vehicle-treated mice, the entire sequence of seizures to respiratory arrest lasts approximately 15 to 20 seconds.
The incidence of all the seizure phases in the drug-treated and vehicle-treated mice was recorded, and the occurrence of tonic seizures were used for calculating anticonvulsant ED50 values by probit analysis. Mice were used only once for testing at each time and dose point.

T1 sequence (Q00975 whole entry): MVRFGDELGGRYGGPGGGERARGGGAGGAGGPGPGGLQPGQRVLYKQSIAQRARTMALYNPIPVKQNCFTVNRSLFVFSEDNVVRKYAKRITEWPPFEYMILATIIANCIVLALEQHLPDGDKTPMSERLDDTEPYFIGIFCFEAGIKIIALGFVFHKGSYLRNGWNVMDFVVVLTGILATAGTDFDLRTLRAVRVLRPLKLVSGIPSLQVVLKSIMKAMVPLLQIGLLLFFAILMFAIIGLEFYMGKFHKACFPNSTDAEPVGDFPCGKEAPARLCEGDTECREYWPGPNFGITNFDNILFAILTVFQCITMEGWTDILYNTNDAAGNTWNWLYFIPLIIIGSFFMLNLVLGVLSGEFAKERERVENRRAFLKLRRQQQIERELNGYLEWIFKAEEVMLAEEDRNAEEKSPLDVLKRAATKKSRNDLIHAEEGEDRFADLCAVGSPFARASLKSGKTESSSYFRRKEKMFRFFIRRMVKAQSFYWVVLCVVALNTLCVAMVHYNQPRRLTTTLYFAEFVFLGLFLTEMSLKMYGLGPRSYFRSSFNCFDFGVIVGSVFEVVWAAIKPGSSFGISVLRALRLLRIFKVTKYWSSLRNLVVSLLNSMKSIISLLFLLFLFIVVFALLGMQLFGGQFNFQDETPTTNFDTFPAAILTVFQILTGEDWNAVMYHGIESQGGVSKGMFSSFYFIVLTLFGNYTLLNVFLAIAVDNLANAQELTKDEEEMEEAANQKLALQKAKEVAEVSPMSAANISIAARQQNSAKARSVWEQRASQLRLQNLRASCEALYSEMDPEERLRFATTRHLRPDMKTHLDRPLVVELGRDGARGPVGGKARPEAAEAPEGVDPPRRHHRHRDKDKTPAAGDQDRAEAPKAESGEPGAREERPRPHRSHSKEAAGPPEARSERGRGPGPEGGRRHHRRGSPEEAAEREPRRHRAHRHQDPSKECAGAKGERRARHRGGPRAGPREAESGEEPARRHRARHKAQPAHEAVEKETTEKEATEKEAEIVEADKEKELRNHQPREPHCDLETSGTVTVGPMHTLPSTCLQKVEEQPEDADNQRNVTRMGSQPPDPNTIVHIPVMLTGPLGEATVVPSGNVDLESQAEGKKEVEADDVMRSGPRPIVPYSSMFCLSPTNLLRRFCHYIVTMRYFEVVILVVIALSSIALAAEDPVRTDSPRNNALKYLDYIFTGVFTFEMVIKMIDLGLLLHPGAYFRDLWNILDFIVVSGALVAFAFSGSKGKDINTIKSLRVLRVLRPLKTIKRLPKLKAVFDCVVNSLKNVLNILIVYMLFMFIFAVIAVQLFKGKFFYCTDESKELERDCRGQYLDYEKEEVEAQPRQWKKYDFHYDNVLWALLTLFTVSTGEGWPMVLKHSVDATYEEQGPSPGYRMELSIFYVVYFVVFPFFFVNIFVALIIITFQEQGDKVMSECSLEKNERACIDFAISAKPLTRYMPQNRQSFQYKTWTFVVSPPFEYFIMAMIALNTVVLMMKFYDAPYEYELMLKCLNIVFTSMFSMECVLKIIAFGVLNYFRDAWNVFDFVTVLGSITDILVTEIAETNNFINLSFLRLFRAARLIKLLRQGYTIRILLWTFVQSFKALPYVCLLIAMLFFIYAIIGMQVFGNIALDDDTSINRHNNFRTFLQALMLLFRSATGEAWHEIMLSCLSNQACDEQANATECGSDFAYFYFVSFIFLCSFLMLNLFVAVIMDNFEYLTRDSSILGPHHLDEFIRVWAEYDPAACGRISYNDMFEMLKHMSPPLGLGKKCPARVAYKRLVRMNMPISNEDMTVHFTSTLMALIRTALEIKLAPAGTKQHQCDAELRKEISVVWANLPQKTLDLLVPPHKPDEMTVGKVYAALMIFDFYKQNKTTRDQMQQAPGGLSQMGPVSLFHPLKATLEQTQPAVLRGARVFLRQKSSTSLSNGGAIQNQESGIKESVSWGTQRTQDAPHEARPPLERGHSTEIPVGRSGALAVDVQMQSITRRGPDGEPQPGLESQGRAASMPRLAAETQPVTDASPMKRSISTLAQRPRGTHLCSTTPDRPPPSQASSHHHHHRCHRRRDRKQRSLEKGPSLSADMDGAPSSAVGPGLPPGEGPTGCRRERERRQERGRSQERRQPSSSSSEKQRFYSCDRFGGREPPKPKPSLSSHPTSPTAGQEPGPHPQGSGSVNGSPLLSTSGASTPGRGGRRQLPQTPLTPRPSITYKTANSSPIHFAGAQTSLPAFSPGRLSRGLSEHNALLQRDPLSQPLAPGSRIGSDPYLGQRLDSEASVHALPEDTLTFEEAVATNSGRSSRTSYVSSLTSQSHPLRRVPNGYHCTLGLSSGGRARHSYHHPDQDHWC
T1 sequence (P54289 25-956 partner limits assumed): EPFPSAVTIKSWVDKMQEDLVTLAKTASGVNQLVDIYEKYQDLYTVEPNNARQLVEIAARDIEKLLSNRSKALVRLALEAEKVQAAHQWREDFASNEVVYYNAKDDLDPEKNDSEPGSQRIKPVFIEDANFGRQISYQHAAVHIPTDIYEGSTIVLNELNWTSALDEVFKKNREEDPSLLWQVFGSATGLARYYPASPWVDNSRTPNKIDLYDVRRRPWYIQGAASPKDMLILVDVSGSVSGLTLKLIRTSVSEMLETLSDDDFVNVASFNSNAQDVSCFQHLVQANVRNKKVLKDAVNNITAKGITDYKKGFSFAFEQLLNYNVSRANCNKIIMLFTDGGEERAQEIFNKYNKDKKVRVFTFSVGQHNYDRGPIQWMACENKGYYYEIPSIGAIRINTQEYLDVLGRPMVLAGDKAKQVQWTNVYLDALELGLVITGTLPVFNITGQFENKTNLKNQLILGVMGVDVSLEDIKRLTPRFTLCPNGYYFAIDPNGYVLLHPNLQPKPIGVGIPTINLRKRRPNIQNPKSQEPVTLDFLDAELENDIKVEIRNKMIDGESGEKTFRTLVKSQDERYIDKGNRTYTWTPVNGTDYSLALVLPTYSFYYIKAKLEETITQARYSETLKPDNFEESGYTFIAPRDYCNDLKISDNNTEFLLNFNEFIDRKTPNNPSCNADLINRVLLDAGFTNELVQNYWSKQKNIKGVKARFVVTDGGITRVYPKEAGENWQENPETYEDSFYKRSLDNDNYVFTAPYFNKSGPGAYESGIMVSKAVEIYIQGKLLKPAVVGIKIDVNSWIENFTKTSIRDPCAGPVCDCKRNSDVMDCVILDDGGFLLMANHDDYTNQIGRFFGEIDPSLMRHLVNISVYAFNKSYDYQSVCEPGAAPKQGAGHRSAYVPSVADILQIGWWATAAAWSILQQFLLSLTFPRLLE
T1 sequence (P54289 957-1103 partner limits assumed): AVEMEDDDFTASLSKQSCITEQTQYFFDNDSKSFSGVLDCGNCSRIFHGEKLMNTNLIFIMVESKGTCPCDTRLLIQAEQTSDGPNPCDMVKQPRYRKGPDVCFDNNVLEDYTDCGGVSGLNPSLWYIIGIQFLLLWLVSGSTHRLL
T1 sequence (P54284 whole entry partner): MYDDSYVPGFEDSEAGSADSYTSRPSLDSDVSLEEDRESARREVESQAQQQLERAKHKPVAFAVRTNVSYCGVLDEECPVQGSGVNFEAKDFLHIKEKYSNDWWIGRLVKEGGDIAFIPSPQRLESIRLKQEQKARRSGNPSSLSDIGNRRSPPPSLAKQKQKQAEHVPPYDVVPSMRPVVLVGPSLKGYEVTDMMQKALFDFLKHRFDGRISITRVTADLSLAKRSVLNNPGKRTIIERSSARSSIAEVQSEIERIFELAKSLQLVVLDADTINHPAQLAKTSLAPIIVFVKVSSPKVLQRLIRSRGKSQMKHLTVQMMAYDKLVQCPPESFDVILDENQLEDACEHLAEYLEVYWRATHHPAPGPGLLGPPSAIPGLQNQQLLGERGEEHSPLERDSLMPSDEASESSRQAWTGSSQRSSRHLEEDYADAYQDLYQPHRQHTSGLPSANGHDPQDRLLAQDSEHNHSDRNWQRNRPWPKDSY

- IC50 (N-type Ca2+ channel): 400 nM
Structure (SMILES): CC(C)CCN[C@@H](Cc1ccncc1)C(=O)N[C@@H](Cc1ccc(OCc2ccccc2)cc1)C(=O)NC(C)(C)C [Example 1, [S—(R*,R*)]—N-[2-(4-Benzyloxy-phenyl)-1-tert-butylcarbamoyl-ethyl]-2-(3-methyl-butylamino)-3-pyridin-4-yl-propionamide]

- IC50 (N-type Ca2+ channel): 1000 nM
Structure (SMILES): CC(C)(C)NC(=O)[C@H](Cc1ccc(OCc2ccccc2)cc1)NC(=O)[C@H](Cc1cccnc1)NC1C=CCCC1 (stereo partly drawn) [Example 4, [S—(R*,R*)]—N-[2-(4-Benzyloxy-phenyl)-1-tert-butylcarbamoyl-ethyl]-2-(cyclohex-2-enylamino)-3-pyridin-3-yl-propionamide]
- DBA/2 mice % protection (dose) (DBA/2 mice): 60% @ 30 mg/kg

- IMR-32 % of Blockade @ μM (N-type Ca2+ channel; @ 1 μM): 79%
- IMR-32 % of Blockade @ μM (N-type Ca2+ channel; @ 10 μM): 97%
Structure (SMILES): CC(C)CCN[C@@H](Cc1cscn1)C(=O)NC(Cc1ccc(OCc2ccccc2)cc1)C(=O)NC(C)(C)C (stereo in doubt) [Example 5, [S—(R*,R*)]—N-[2-(4-Benzyloxy-phenyl)-1-tert-butylcarbamoyl-ethyl]-2-(3-methyl-butylamino)-3-thiazol-4-yl-propionamide]
- DBA/2 mice % protection (dose) (DBA/2 mice): 100% @ 30 mg/kg

- IC50 (N-type Ca2+ channel): 770 nM
Structure (SMILES): CC(C)CCN[C@@H](Cc1cccnc1)C(=O)NC(Cc1ccc(OCc2ccccc2)cc1)C(=O)NC(C)(C)C (stereo in doubt) [Example 3, [S-(R*,R*)]—N-[2-(4-Benzyloxy-phenyl)-1-tert-butylcarbamoyl-ethyl]-2-(3-methyl-butylamino)-3-pyridin-3-yl-propionamide]
- DBA/2 mice % protection (dose) (DBA/2 mice): 80% @ 30 mg/kg

More lines, now with the values behind:

Structure (SMILES): CC(C)(C)NC(=O)[C@H](Cc1ccc(OCc2ccccc2)cc1)NC(=O)[C@H](Cc1cscn1)NC1C=CCCC1 (stereo partly drawn) [Example 6, [S—(R*,R*)]—N-[2-(4-Benzyloxy-phenyl)-1-tert-butylcarbamoyl-ethyl]-2-(cyclohex-2-enylamino)-3-thiazol-4-yl-propionamide]
- IC50 (N-type Ca2+ channel): 1100 nM

Structure (SMILES): CC(C)N[C@@H](Cc1c[nH]cn1)C(=O)N[C@@H](Cc1ccc(OCc2ccccc2)cc1)C(=O)NC(C)(C)C (relative stereo) [Example 9, [S—(R*,R*)]N-[2-(4-Benzyloxy-phenyl)-1-tert-butylcarbamoyl-ethyl]-2-(1-methylethyl-amino)-3-(1H-imidazol-4-yl)-propionamide]
- IMR-32 % of Blockade @ μM (N-type Ca2+ channel; @ 1 μM): 11%
- IMR-32 % of Blockade @ μM (N-type Ca2+ channel; @ 10 μM): 55%

Structure (SMILES): CC(C)(C)NC(=O)[C@H](Cc1ccc(OCc2ccccc2)cc1)NC(=O)[C@H](Cc1ccncc1)NC1C=CCCC1 (stereo partly drawn) [Example 2, [S-(R*,R*)]—N-[2-(4-Benzyloxy-phenyl)-1-tert-butylcarbamoyl-ethyl]-2-(cyclohex-2-enylamino)-3-pyridin-4-yl-propionamide]
- IC50 (N-type Ca2+ channel): 1300 nM

Structure (SMILES): CC(C)(C)NC(=O)[C@H](Cc1ccc(OCc2ccccc2)cc1)NC(=O)[C@H](Cc1cscn1)NC1CCCCC1 (relative stereo) [Example 7, [S—(R*,R*)]-N-[2-(4-Benzyloxy-phenyl)-1-tert-butylcarbamoyl-ethyl]-2-cyclohexylamino-3-thiazol-4-yl-propionamide]
- IMR-32 % of Blockade @ μM (N-type Ca2+ channel; @ 1 μM): 67%
- IMR-32 % of Blockade @ μM (N-type Ca2+ channel; @ 10 μM): 95%

Structure (SMILES): CC(C)(C)NC(=O)[C@H](Cc1ccc(OCc2ccccc2)cc1)NC(=O)[C@H](Cc1c[nH]cn1)NCC1CCCCC1 [Example 8, [S—(R*,R*)]—N-[2-(4-Benzyloxy-phenyl)-1-tert-butylcarbamoyl-ethyl]-2-(cyclohexylmethyl-amino)-3-(1H-imidazol-4-yl)-propionamide]
- IC50 (N-type Ca2+ channel): 670 nM

Structure (SMILES): CC(C)(C)NC(=O)[C@H](Cc1ccc(OCc2ccccc2)cc1)NC(=O)[C@H](Cc1c[nH]cn1)NCC1CCCCC1 (as salt: salt) [Example 8, [S—(R*,R*)]—N-[2-(4-Benzyloxy-phenyl)-1-tert-butylcarbamoyl-ethyl]-2-(cyclohexylmethyl-amino)-3-(1H-imidazol-4-yl)-propionamide]
- melting point: 163 to 165 °C

Structure (SMILES): CC(C)(C)NC(=O)[C@H](Cc1ccc(OCc2ccccc2)cc1)NC(=O)[C@H](Cc1cscn1)NC1C=CCCC1 (stereo partly drawn) (as salt: HCl) [Example 6, [S—(R*,R*)]—N-[2-(4-Benzyloxy-phenyl)-1-tert-butylcarbamoyl-ethyl]-2-(cyclohex-2-enylamino)-3-thiazol-4-yl-propionamide]
- melting point: 243 to 244 °C

Structure (SMILES): CC(C)(C)NC(=O)[C@H](Cc1ccc(OCc2ccccc2)cc1)NC(=O)[C@H](Cc1ccncc1)NC1C=CCCC1 (stereo partly drawn) (as salt: HCl) [Example 2, [S-(R*,R*)]—N-[2-(4-Benzyloxy-phenyl)-1-tert-butylcarbamoyl-ethyl]-2-(cyclohex-2-enylamino)-3-pyridin-4-yl-propionamide]
- melting point: 163 to 164 °C
